Measurements taken from US11415579B2, “Assay for measuring a rate of reaction between a target and a ligand candidate” (Imperial College Innovations Ltd., priority 2016, dated 2022).

How the values were obtained:
Cdk2(N272C) (C177A) = biological target: T1, Cdk2(N272C) (C177A) (Homo sapiens, UniProt P24941, C177A/N272C); test: Kinetic thiol consumption assay with Cdk2 mutant N272C; assay type: binding; set-up: key to Rate enhancement, Cdk2 N272: rate constant with Cdk2 ÷ rate constant with model thiol (fold); settings: for Rate enhancement, Cdk2 N272: Cdk2 N272, additional mutation C177A; for Rate constant with Cdk2 N272C: Protein: Cdk2, cysteine position N272C, additional mutation C177A, in h^-1
T1 construct: poly-histidine; made in house; host or cells: E. coli
How it was run: (§1)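 His-tagged single-surface-cysteine Cdk2 mutants (C177A background) from E. coli, 5 μM in degassed phosphate buffer pH 8, pre-treated with immobilized TCEP beads. Fluorescence (ex/em 380/470 nm) read after 1 h at room temperature, normalized to DMSO/thiol-only control; first-order decay fits gave rate constants, divided by model-thiol rate for rate enhancement.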

Cdk2(S181C) (C177A) = biological target: T2, Cdk2(S181C) (C177A) (Homo sapiens, UniProt P24941, C177A/S181C); test: Kinetic thiol consumption assay with Cdk2 mutant S181C; assay type: binding; set-up: key to Rate enhancement, Cdk2 S181C: rate constant with Cdk2 ÷ rate constant with model thiol (fold); settings: additional mutation C177A; for Rate constant with Cdk2 S181C: Protein: Cdk2, cysteine position S181C, in h^-1
T2 construct: poly-histidine; made in house; host or cells: E. coli
How it was run: as §1

Cdk2(S276C) (C177A) = biological target: T3, Cdk2(S276C) (C177A) (Homo sapiens, UniProt P24941, C177A/S276C); test: Kinetic thiol consumption assay with Cdk2 mutant S276C; assay type: binding; set-up: key to Rate enhancement, Cdk2 S276C: rate constant with Cdk2 ÷ rate constant with model thiol (fold); settings: additional mutation C177A; for Rate constant with Cdk2 S276C: Protein: Cdk2, cysteine position S276C, in h^-1
T3 construct: poly-histidine; made in house; host or cells: E. coli
How it was run: as §1

Cdk2(C177A, F80C) = biological target: T4, Cdk2(C177A, F80C) (Homo sapiens, UniProt P24941, C177A/F80C); test: Kinetic thiol consumption assay with Cdk2 mutant F80C, incl. kobs versus concentration (Kd, k2); assay type: binding; set-up: key to Rate enhancement, Cdk2 F80C: Cdk2 rate constant divided by model-thiol rate constant; settings: additional mutation C177A; for Rate constant with Cdk2 F80C: Protein: Cdk2, cysteine position F80C, in h^-1
T4 construct: poly-histidine; made in house; host or cells: E. coli
How it was run: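 His-tagged Cdk2(C177A/F80C) from E. coli or model thiol, 5 μM in degassed phosphate buffer pH 8 with TCEP beads, reacted with acrylamide ligands; fluorescence (ex/em 380/470 nm) normalized to DMSO control and fitted to first-order decay for kobs. Kd and k2 obtained from hyperbolic fit of kobs versus ligand concentration.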

Cdk2[C177A, F80C, K278C] = biological target: T5, Cdk2[C177A, F80C, K278C] (Homo sapiens, UniProt P24941, C177A/F80C/K278C); test: Kinetic thiol consumption assay with mutant Cdk2 as model thiol; assay type: binding; set-up: unit not given here; settings: 500 μM ligand, 5 μM thiol, phosphate buffer pH 8
T5 construct: poly-histidine; made in house; host or cells: E. coli
How it was run: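 Model thiol: His-tagged human Cdk2 C177A/F80C/K278C (two engineered surface cysteines), E. coli-expressed, 5 μM in degassed phosphate buffer pH 8 with immobilized TCEP beads (2% v/v). Fluorescence (ex/em 380/470 nm) followed over time at room temperature, normalized to DMSO/thiol control. First-order decay fit gives rate constants.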

Cdk2(T182C) (C177A) = biological target: T6, Cdk2(T182C) (C177A) (Homo sapiens, UniProt P24941, C177A/T182C); test: Kinetic thiol consumption assay with Cdk2 mutant T182C; assay type: binding; set-up: key to Rate enhancement, Cdk2 T182C: rate constant with Cdk2 ÷ rate constant with model thiol (fold); settings: additional mutation C177A; for Rate constant with Cdk2 T182C: Protein: Cdk2, cysteine position T182C, in h^-1
T6 construct: poly-histidine; made in house; host or cells: E. coli
How it was run: as §1

Cdk2(R122C) (C177A) = biological target: T7, Cdk2(R122C) (C177A) (Homo sapiens, UniProt P24941, C177A/R122C); test: Kinetic thiol consumption assay with Cdk2 mutant R122C; assay type: binding; set-up: key to Rate enhancement, Cdk2 R122C: rate constant with Cdk2 ÷ rate constant with model thiol (fold); settings: additional mutation C177A; for Rate constant with Cdk2 R122C: Protein: Cdk2, cysteine position R122C, in h-1
T7 construct: poly-histidine; made in house; host or cells: E. coli
How it was run: as §1

Cdk2(H71C) (C177A) = biological target: T8, Cdk2(H71C) (C177A) (Homo sapiens, UniProt P24941, C177A/H71C); test: Kinetic thiol consumption assay with Cdk2 mutant H71C; assay type: binding; set-up: key to Rate enhancement, Cdk2 H71C: rate constant with Cdk2 ÷ rate constant with model thiol (fold); settings: additional mutation C177A; for Rate constant with Cdk2 H71C: Protein: Cdk2, cysteine position H71C, in h^-1
T8 construct: poly-histidine; made in house; host or cells: E. coli
How it was run: as §1

[1] = Kinetic thiol consumption assay with model thiol glutathione; assay type: physicochemical; set-up: Rate constant with glutathione (k(GSH)): unit not given here; settings: for Rate constant with glutathione (k(GSH)): 500 μM ligand, 5 μM thiol, phosphate buffer pH 8; for Rate constant with Glutathione: Protein: Glutathione, cysteine position NA, in h-1
How it was run: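 Rate constants for acrylamide reaction with 5 μM glutathione come from first-order exponential fits of normalized fluorescence decay (ex 380, em 470 nm). Reactions run in degassed phosphate buffer at pH 8 containing TCEP beads, room temperature.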

[2] = biological target: T9, human cyclin-dependent kinase 2 (Cdk2) (Homo sapiens, UniProt P24941); test: Kinetic thiol consumption assay with wild type Cdk2 (C177); assay type: binding; set-up: key to Rate enhancement, Cdk2 WT: k(Cdk2) divided by k(model thiol); Rate constant with Cdk2 (k(Cdk2)): unit not given here; settings: for Rate constant with Cdk2 (k(Cdk2)): 500 μM ligand, 5 μM thiol, phosphate buffer pH 8; for Rate enhancement, Cdk2 WT: no additional mutations; for Rate constant with Cdk2 WT: Protein: Cdk2, cysteine position WT, in h^-1; for k(Cdk2)/k(Cdk2_mut) rate enhancement: model thiol Cdk2[C177A, F80C, K278C]; for k(Cdk2)/k(GSH) rate enhancement: model thiol glutathione
T9 construct: poly-histidine; made in house; host or cells: E. coli
How it was run: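 Rate enhancement: first-order decay constant with Cdk2 over that with a model thiol. Thiols (5 μM, degassed phosphate buffer pH 8, immobilized TCEP) were incubated with acrylamides at room temperature, and thiol consumption followed by fluorescence at 380/470 nm, normalized to DMSO control. Cdk2 was His-tagged, E. coli-expressed, with one surface cysteine (C177).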

Row | SMILES | Rate enhancement, Cdk2 N272 (Cdk2(N272C) (C177A)) | Rate constant with Cdk2 N272C (Cdk2(N272C) (C177A)) | Rate enhancement, Cdk2 S181C (Cdk2(S181C) (C177A)) | Rate constant with Cdk2 S181C (Cdk2(S181C) (C177A)) | Rate enhancement, Cdk2 S276C (Cdk2(S276C) (C177A)) | Rate constant with Cdk2 S276C (Cdk2(S276C) (C177A)) | Rate enhancement, Cdk2 F80C (Cdk2(C177A, F80C)) | Rate constant with Cdk2 F80C (Cdk2(C177A, F80C)) | Rate constant with Cdk2[C177A, F80C, K278C] (k(Cdk2_mut)) (Cdk2[C177A, F80C, K278C]) | Rate enhancement, Cdk2 T182C (Cdk2(T182C) (C177A)) | Rate constant with Cdk2 T182C (Cdk2(T182C) (C177A)) | Rate enhancement, Cdk2 R122C (Cdk2(R122C) (C177A)) | Rate constant with Cdk2 R122C (Cdk2(R122C) (C177A)) | Rate enhancement, Cdk2 H71C (Cdk2(H71C) (C177A)) | Rate constant with Cdk2 H71C (Cdk2(H71C) (C177A)) | Rate constant with glutathione (k(GSH)) [1] | Rate constant with Glutathione [1] | Rate constant with Cdk2 (k(Cdk2)) [2] | Rate enhancement, Cdk2 WT [2] | Rate constant with Cdk2 WT [2] | further results
1 | C=CC(=O)N1CCOC2(CCCCC2)C1 [CA-193] | 0.8528 | 0.02375 | 0.4083 | 0.01137 | 1.379 | 0.03841 | 1.419 | 0.03952 | 0.01059 | 3.878 | 0.108 | 0.6093 | 0.01697 | 1.842 | 0.05131 | 0.02378 | 0.02785 | 0.02444 | 0.8776 | 0.02444 | k(Cdk2)/k(Cdk2_mut) rate enhancement [2]: 2.308; k(Cdk2)/k(GSH) rate enhancement [2]: 1.028
2 | C=CC(=O)Nc1ccc2nc(C)[nH]c2c1 [EL-1109] | 0.3872 | 0.003319 | 1.588 | 0.01361 | 0.9188 | 0.007876 | 1.94 | 0.01663 | 0.00922 | 5.286 | 0.04531 | 0.7255 | 0.006219 | 0.5644 | 0.004838 | 0.00862 | 0.008572 | 0.00827 | 0.9701 | 0.008316 | k(Cdk2)/k(Cdk2_mut) rate enhancement [2]: 0.8966; k(Cdk2)/k(GSH) rate enhancement [2]: 0.9595
3 | C=CC(=O)N1CC2(CCC2)c2c(F)cccc21 [CA-188] | 0.3173 | 0.06304 | 0.2482 | 0.04931 | 0.03818 | 0.007587 | 2.57 | 0.5106 | 1.161 | 1.883 | 0.3741 | 0.08933 | 0.01775 | 1.537 | 0.3055 | 0.1903 | 0.1987 | 0.55 | 2.768 | 0.55 | k(Cdk2)/k(Cdk2_mut) rate enhancement [2]: 0.4737; k(Cdk2)/k(GSH) rate enhancement [2]: 2.89
4 | C=CC(=O)Nc1cccc(Nc2ncnc3cc(OC)c(OC)cc23)c1 [GC248] | 1.058 | 0.01579 | 1.037 | 0.01548 | 0.1863 | 0.002781 | 0.1205 | 0.001799 | 0.0156 | 34.92 | 0.5214 | 0.8326 | 0.01243 | 0.6345 | 0.009473 | 0.01495 | 0.01493 | 0.01014 | 0.9116 | 0.01361 | k(Cdk2)/k(Cdk2_mut) rate enhancement [2]: 0.65; k(Cdk2)/k(GSH) rate enhancement [2]: 0.6783
